From ChEMBL document CHEMBL3603744, “Structure activity relationship of C-2 ether substituted 1,5-naphthyridine analogs of oxabicyclooctane-linked novel bacterial topoisomerase inhibitors as broad-spectrum antibacterial agents (Part-5)” (Bioorg Med Chem Lett, 2015)
In brackets after ≈: the same amount, converted by molar mass. Activity calls are given as the source filed them. How the calls were made is not given here.

Legend:
[1] = test system: Pseudomonas aeruginosa; experiment: Antimicrobial activity against Pseudomonas aeruginosa PAO1 by micro broth dilution or agar based method; type: functional
[2] = test system: Staphylococcus aureus; experiment: Antimicrobial activity against methicillin-resistant Staphylococcus aureus OIT971 by micro broth dilution or agar based method; type: functional, organism-based
[3] = test system: Escherichia coli; experiment: Antimicrobial activity against Escherichia coli ATCC 25922 by micro broth dilution or agar based method; type: functional
[4] = test system: Acinetobacter baumannii; experiment: Antimicrobial activity against Acinetobacter baumannii IID876 by micro broth dilution or agar based method; type: functional
[5] = test system: Staphylococcus aureus; experiment: Antimicrobial activity against Staphylococcus aureus Smith by micro broth dilution or agar based method; type: functional
[6] = test system: Streptococcus pneumoniae; experiment: Antimicrobial activity against Streptococcus pneumoniae IID553 by micro broth dilution or agar based method; type: functional
[7] = test system: Staphylococcus aureus; experiment: Resistance index, ratio of MIC for quinolone-resistant Staphylococcus aureus MS5935 to MIC for quinolone-[…]; type: functional
[8] = test system: Enterococcus faecium; experiment: Antimicrobial activity against vancomycin-resistant Enterococcus faecium VanA by micro broth dilution or agar based method; type: functional

Structure (SMILES) | MIC [1] [µg/mL] | growth inhibition (GI) [2] | MIC [3] [µg/mL] | MIC [4] [µg/mL] | MIC [5] [µg/mL] | MIC [6] [µg/mL] | Ratio [7] | MIC [8] [µg/mL]
CC(C)Oc1ccc2ncc(F)c(CCC34CCC(NCc5ccc6c(n5)NC(=O)CO6)(CC3)CO4)c2n1 | 32 (≈ 61.4 µM) | Active | 16 (≈ 30.7 µM) | 8 (≈ 15.3 µM) | 0.25 (≈ 0.479 µM) | 2 (≈ 3.83 µM) | <4 | 8 (≈ 15.3 µM)
O=C1COc2ccc(CNC34CCC(CCc5c(F)cnc6ccc(OC[C@H]7C[C@H]7C(=O)O)nc56)(CC3)OC4)nc2N1 (relative stereo) | 32 (≈ 55.4 µM) | Active | 32 (≈ 55.4 µM) | 32 (≈ 55.4 µM) | 0.125 (≈ 0.216 µM) | 0.125 (≈ 0.216 µM) |  | 2 (≈ 3.46 µM)
N#CC1(COc2ccc3ncc(F)c(CCC45CCC(NCc6ccc7c(n6)NC(=O)CO7)(CC4)CO5)c3n2)CC1 | 16 (≈ 28.6 µM) | Active | 16 (≈ 28.6 µM) | 2 (≈ 3.58 µM) | 0.063 (≈ 0.113 µM) | 1 (≈ 1.79 µM) |  | 4 (≈ 7.16 µM)
O=C1COc2ccc(CNC34CCC(CCc5c(F)cnc6ccc(OC7CC(O)CC(O)C7)nc56)(CC3)OC4)nc2N1 (stereo unspecified) | 64 (≈ 108 µM) | Active | 64 (≈ 108 µM) | 32 (≈ 53.9 µM) | 0.5 (≈ 0.842 µM) | 0.5 (≈ 0.842 µM) |  | 16 (≈ 27 µM)
CC(C)(O)CCOc1ccc2ncc(F)c(CCC34CCC(NCc5ccc6c(n5)NC(=O)CO6)(CC3)CO4)c2n1 | 16 (≈ 28.3 µM) | Active | 16 (≈ 28.3 µM) | 16 (≈ 28.3 µM) | 1 (≈ 1.77 µM) | 4 (≈ 7.07 µM) |  | 16 (≈ 28.3 µM)
O=C1COc2ccc(CNC34CCC(CCc5c(F)cnc6ccc(OCCCCO)nc56)(CC3)OC4)nc2N1 | 16 (≈ 29 µM) | Active | 8 (≈ 14.5 µM) | 2 (≈ 3.63 µM) | 0.031 (≈ 0.0562 µM) | 0.5 (≈ 0.906 µM) |  | 2 (≈ 3.63 µM)
O=C1COc2ccc(CNC34CCC(CCc5c(F)cnc6ccc(OC(F)F)nc56)(CC3)OC4)nc2N1 | 4 (≈ 7.55 µM) | Active | 2 (≈ 3.78 µM) | 0.5 (≈ 0.944 µM) | 0.016 (≈ 0.0302 µM) | 0.125 (≈ 0.236 µM) |  | 1 (≈ 1.89 µM)
NC1COCC1Oc1ccc2ncc(F)c(CCC34CCC(NCc5ccc6c(n5)NC(=O)CO6)(CC3)CO4)c2n1 (stereo unspecified) | 16 (≈ 28.3 µM) | Active | 4 (≈ 7.08 µM) | 1 (≈ 1.77 µM) | 0.125 (≈ 0.221 µM) | 1 (≈ 1.77 µM) |  | 8 (≈ 14.2 µM)
CC(C)CCOc1ccc2ncc(F)c(CCC34CCC(NCc5ccc6c(n5)NC(=O)CO6)(CC3)CO4)c2n1 | 16 (≈ 29.1 µM) | Active | 16 (≈ 29.1 µM) | 16 (≈ 29.1 µM) | 0.125 (≈ 0.227 µM) | 1 (≈ 1.82 µM) |  | 8 (≈ 14.6 µM)
O=C1COc2ccc(CNC34CCC(CCc5c(F)cnc6ccc(OCCc7cc(=O)c(O)c[nH]7)nc56)(CC3)OC4)nc2N1 | 32 (≈ 51.9 µM) | Active | 32 (≈ 51.9 µM) | 32 (≈ 51.9 µM) | 16 (≈ 25.9 µM) | 8 (≈ 13 µM) |  | 32 (≈ 51.9 µM)
CCOC(=O)COc1ccc2ncc(F)c(CCC34CCC(NCc5ccc6c(n5)NC(=O)CO6)(CC3)CO4)c2n1 | 16 (≈ 28.3 µM) | Active | 16 (≈ 28.3 µM) | 8 (≈ 14.1 µM) | 0.25 (≈ 0.442 µM) | 16 (≈ 28.3 µM) |  | 16 (≈ 28.3 µM)
NC(=O)C(F)(F)CCOc1ccc2ncc(F)c(CCC34CCC(NCc5ccc6c(n5)NC(=O)CO6)(CC3)CO4)c2n1 | 32 (≈ 53.3 µM) | Active | 8 (≈ 13.3 µM) | 4 (≈ 6.66 µM) | 0.063 (≈ 0.105 µM) | 1 (≈ 1.67 µM) |  | 8 (≈ 13.3 µM)
O=C1COc2ccc(CNC34CCC(CCc5c(F)cnc6ccc(OCC(CO)CO)nc56)(CC3)OC4)nc2N1 | 32 (≈ 56.4 µM) | Active | 16 (≈ 28.2 µM) | 8 (≈ 14.1 µM) | 0.125 (≈ 0.22 µM) | 0.5 (≈ 0.881 µM) |  | 4 (≈ 7.05 µM)
N[C@@H]1C(=O)NC[C@H]1Oc1ccc2ncc(F)c(CCC34CCC(NCc5ccc6c(n5)NC(=O)CO6)(CC3)CO4)c2n1 | 16 (≈ 27.7 µM) | Active | 16 (≈ 27.7 µM) | 16 (≈ 27.7 µM) | 16 (≈ 27.7 µM) | 16 (≈ 27.7 µM) |  | 16 (≈ 27.7 µM)
N[C@@H]1CO[C@@H]1COc1ccc2ncc(F)c(CCC34CCC(NCc5ccc6c(n5)NC(=O)CO6)(CC3)CO4)c2n1 | 32 (≈ 56.7 µM) | Active | 8 (≈ 14.2 µM) | 1 (≈ 1.77 µM) | 0.125 (≈ 0.221 µM) | 1 (≈ 1.77 µM) |  | 8 (≈ 14.2 µM)
O=C1COc2ccc(CNC34CCC(CCc5c(F)cnc6ccc(OC[C@H]7C[C@@H](O)[C@@H](O)C7)nc56)(CC3)OC4)nc2N1 | 8 (≈ 13.5 µM) | Active | 8 (≈ 13.5 µM) | 8 (≈ 13.5 µM) | 0.063 (≈ 0.106 µM) | 0.5 (≈ 0.842 µM) |  | 4 (≈ 6.74 µM)
N[C@H]1CO[C@@H]1COc1ccc2ncc(F)c(CCC34CCC(NCc5ccc6c(n5)NC(=O)CO6)(CC3)CO4)c2n1 | 16 (≈ 28.3 µM) | Active | 4 (≈ 7.08 µM) | 0.5 (≈ 0.886 µM) | 0.125 (≈ 0.221 µM) | 0.5 (≈ 0.886 µM) |  | 4 (≈ 7.08 µM)
N#CCCCOc1ccc2ncc(F)c(CCC34CCC(NCc5ccc6c(n5)NC(=O)CO6)(CC3)CO4)c2n1 | 16 (≈ 29.3 µM) | Active | 4 (≈ 7.32 µM) | 2 (≈ 3.66 µM) | 0.031 (≈ 0.0567 µM) | 0.5 (≈ 0.915 µM) |  | 2 (≈ 3.66 µM)
O=C1COc2ccc(CNC34CCC(CCc5c(F)cnc6ccc(OCc7cc(=O)c(O)c[nH]7)nc56)(CC3)OC4)nc2N1 | 16 (≈ 26.6 µM) | Active | 16 (≈ 26.6 µM) | 16 (≈ 26.6 µM) | 8 (≈ 13.3 µM) | 32 (≈ 53.1 µM) |  | 64 (≈ 106 µM)
COC(=O)CCCCOc1ccc2ncc(F)c(CCC34CCC(NCc5ccc6c(n5)NC(=O)CO6)(CC3)CO4)c2n1 | 4 (≈ 6.74 µM) | Active | 4 (≈ 6.74 µM) | 4 (≈ 6.74 µM) | 0.063 (≈ 0.106 µM) | 0.5 (≈ 0.842 µM) |  | 2 (≈ 3.37 µM)
NC1CC1COc1ccc2ncc(F)c(CCC34CCC(NCc5ccc6c(n5)NC(=O)CO6)(CC3)CO4)c2n1 (stereo unspecified) | 16 (≈ 29.2 µM) | Active | 2 (≈ 3.65 µM) | 0.25 (≈ 0.456 µM) | 0.125 (≈ 0.228 µM) | 1 (≈ 1.82 µM) |  | 4 (≈ 7.29 µM)
O=C(O)CCCOc1ccc2ncc(F)c(CCC34CCC(NCc5ccc6c(n5)NC(=O)CO6)(CC3)CO4)c2n1 | 16 (≈ 28.3 µM) | Active | 16 (≈ 28.3 µM) | 16 (≈ 28.3 µM) | 0.25 (≈ 0.442 µM) | 0.5 (≈ 0.884 µM) |  | 4 (≈ 7.07 µM)
NC1(COc2ccc3ncc(F)c(CCC45CCC(NCc6ccc7c(n6)NC(=O)CO7)(CC4)CO5)c3n2)CC1 | 16 (≈ 29.2 µM) | Active | 2 (≈ 3.65 µM) | 1 (≈ 1.82 µM) | 0.25 (≈ 0.456 µM) | 1 (≈ 1.82 µM) |  | 8 (≈ 14.6 µM)
O=C1COc2ccc(CNC34CCC(CCc5c(F)cnc6ccc(OCC7(O)COC7)nc56)(CC3)OC4)nc2N1 | 32 (≈ 56.6 µM) | Active | 16 (≈ 28.3 µM) | 4 (≈ 7.07 µM) | 0.125 (≈ 0.221 µM) | 0.5 (≈ 0.884 µM) |  | 4 (≈ 7.07 µM)
O=C1COc2ccc(CNC34CCC([C@@H](O)Cc5c(F)cnc6ccc(OCCO)nc56)(CC3)OC4)nc2N1 | 16 (≈ 29.7 µM) | Active | 8 (≈ 14.8 µM) | 2 (≈ 3.71 µM) | 0.125 (≈ 0.232 µM) | 1 (≈ 1.85 µM) |  | 4 (≈ 7.41 µM)
